The source of these data is paper PMC10504015, “Design, synthesis, and enzyme inhibition evaluation of some novel Mono- and Di-O-β-D-Glycopyranosyl Chalcone analogues with molecular docking studies” (Turkish Journal of Chemistry, 2022).

Usually IC50 stands for the concentration at which inhibition is half-maximal.

Holding throughout (format): biochemical
The target of one experiment is tyrosinase (Agaricus bisporus, UniProt C7FF04). The experiment is described as follows: Tyrosinase from mushroom inhibitory effect (L-DOPA substrate, 475 nm). Particulars: phosphate buffer pH 6.8, read-out: IC50 on tyrosinase (Tyr). The procedure:
The tyrosinase inhibitory effects of the newly synthesized compounds were performed using microplate reader with minor modifications according to the standard method. […] The activity of tyrosinase solution was adjusted as 250 U/mL in phosphate buffer (pH 6.8, 100 mM). For each wells, 100 μL buffer (pH 6.8, 100 mM), 20 μL of tyrosinase (0.2 U/mL), and 20 μL of compounds were added and incubated 20 min. After incubation, 20 μL of 3,4-dihydroxy-L-phenylalanine (3 mM) was pipetted into wells. Absorbance was measured at 475 nm.

In the next experiment the target is AChE (Electrophorus electricus, UniProt O42275). Particulars: electric eel AChE, Tris-HCl buffer pH 8.0. The procedure: The AChE from electric eel inhibitory effects of the newly synthesized compounds were performed using microplate reader with minor modification according to the standard method. […] The activity of AChE solution was adjusted as 0.2 U/mL in Tris-HCl buffer (pH 8.0, 50 mM). For each wells, 50 μL buffer (pH 8.0, 50 mM), 125 μL 5,5-dithio-bis(2-nitrobenzoic)acid (3 mM), 25 μL of AChE (0.2 U/mL) and 25 μL of compounds were added and incubated 20 min at room temperature. After incubation, 25 μL of acetylthiocholine iodide (15 mM) was pipetted into wells. Absorbance was measured at 412 nm.
Chain of AChE (O42275 24-633): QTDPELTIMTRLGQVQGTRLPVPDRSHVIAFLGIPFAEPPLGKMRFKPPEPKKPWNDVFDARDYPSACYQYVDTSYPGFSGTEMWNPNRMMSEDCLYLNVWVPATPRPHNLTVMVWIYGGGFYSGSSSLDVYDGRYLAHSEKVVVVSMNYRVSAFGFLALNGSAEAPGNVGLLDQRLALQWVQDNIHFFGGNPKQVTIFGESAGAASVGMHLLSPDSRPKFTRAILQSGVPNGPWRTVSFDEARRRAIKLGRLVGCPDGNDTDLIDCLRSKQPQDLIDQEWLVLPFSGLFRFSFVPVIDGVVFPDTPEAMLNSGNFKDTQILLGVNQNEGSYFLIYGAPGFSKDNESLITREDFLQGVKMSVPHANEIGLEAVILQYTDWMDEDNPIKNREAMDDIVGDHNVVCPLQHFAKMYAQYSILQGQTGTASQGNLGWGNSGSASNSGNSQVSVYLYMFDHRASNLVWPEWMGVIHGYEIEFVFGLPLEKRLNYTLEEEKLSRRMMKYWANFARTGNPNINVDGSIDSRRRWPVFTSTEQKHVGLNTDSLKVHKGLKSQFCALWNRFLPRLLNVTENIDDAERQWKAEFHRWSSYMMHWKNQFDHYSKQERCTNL

The target of a further experiment is α-glycosidase. The experiment is described as follows: α-Glycosidase inhibitory effect (p-nitrophenyl-α-D glucopyranoside substrate). Particulars: enzyme 2 U/mL, phosphate buffer pH 6.8, 37 °C; nd: not detected. The procedure:
α-glycosidase inhibitory effect of the newly synthesized samples that were solvated in DMSO was performed with some minor modifications of the standard method. The activity degree of the enzyme solution was adjusted as 2 U/mL in phosphate buffer (pH 6.8, 50 mM). For each test tube, 150 μL of the sample, 150 μL of the enzyme (2 U/mL), and 150 μL of buffer were pipetted. After the incubation for 15 min at 37 °C, 150 μL of p-nitrophenyl-α-D glucopyranoside (20 mM, Sigma-Aldrich) was added and then their absorbance was monitored for 20 min at 400 nm.

Chain of tyrosinase (C7FF04 1-392 limits assumed): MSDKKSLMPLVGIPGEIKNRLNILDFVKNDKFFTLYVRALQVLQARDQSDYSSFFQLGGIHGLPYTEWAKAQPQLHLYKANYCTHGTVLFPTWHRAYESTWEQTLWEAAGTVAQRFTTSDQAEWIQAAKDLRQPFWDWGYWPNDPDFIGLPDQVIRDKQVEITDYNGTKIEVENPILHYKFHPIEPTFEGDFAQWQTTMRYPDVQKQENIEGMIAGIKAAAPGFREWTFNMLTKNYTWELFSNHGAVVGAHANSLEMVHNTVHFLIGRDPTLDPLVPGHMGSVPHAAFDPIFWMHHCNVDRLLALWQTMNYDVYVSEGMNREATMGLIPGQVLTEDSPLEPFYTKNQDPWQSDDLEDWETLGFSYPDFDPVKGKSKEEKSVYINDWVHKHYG

In the case of `COc1cc(C(=O)/C=C/c2ccccc2O[C@@H]2O[C@H](CO)[C@@H](O)[C@H](O)[C@H]2O)ccc1O[C@@H]1O[C@H](CO)[C@@H](O)[C@H](O)[C@H]1O` [8a, (2E)-1-(4-O-β-D-glucopyranosyl-3-methoxyphenyl)-3-(2-O-β-D-glucopyranosylphenyl)-prop-2-en-1-one], the IC50 on tyrosinase and at AChE was over 100 µM throughout.

In the case of `COc1cccc(/C=C/C(=O)c2cc(OC3OC(CO)C(O)C(O)C3O)cc(OC3OC(CO)C(O)C(O)C3O)c2)c1` [17b, (2E)-1-(3,5-di-O-β-D-glucopyranosylphenyl)-3-(3-methoxyphenyl)-prop-2-en-1-one], the IC50 is over 100 µM at tyrosinase, over 100 µM against AChE and 16600 ± 620 µM against α-glycosidase.

Take `COc1ccc(/C=C/C(=O)c2cc(OC3OC(CO)C(O)C(O)C3O)cc(OC3OC(CO)C(O)C(O)C3O)c2)cc1` [17c, (2E)-1-(3,5-di-O-β-D-glucopyranosylphenyl)-3-(4-methoxyphenyl)-prop-2-en-1-one]: the results for the IC50 on tyrosinase, on AChE and against α-glycosidase were 34.4 ± 1.74 µM, over 100 µM and 16300 ± 630 µM, respectively.

`COc1cc(C(=O)/C=C/c2ccccc2O)ccc1O[C@@H]1O[C@H](CO)[C@@H](O)[C@H](O)[C@H]1O` [7a, (2E)-1-(4-O-β-D-glucopyranosyl-3-methoxyphenyl)-3-(2-hydroxyphenyl)prop-2-en-1-one]: the IC50 on tyrosinase and against AChE was over 100 µM in each case.

As for `COc1ccccc1/C=C/C(=O)c1cc(O)cc(O[C@@H]2O[C@H](CO)[C@@H](O)[C@H](O)[C@H]2O)c1` [16a, (2E)-1-(3-O-β-D-glucopyranosyl-5-hyroxyphenyl)-3-(2-methoxyphenyl)-prop-2-en-1-one], the IC50 at tyrosinase is over 100 µM; against AChE it was over 100 µM; at α-glycosidase, 12870 ± 90 µM.

With `COc1cc(C(=O)/C=C/c2ccc(O[C@@H]3O[C@H](CO)[C@@H](O)[C@H](O)[C@H]3O)cc2)ccc1O[C@@H]1O[C@H](CO)[C@@H](O)[C@H](O)[C@H]1O` [8c, (2E)-1-(4-O-β-D-glucopyranosyl-3-methoxyphenyl)-3-(4-O-β-D-glucopyranosylphenyl)-prop-2-en-1-one], the IC50 on tyrosinase is 53.6 ± 2.31 µM; at AChE, over 100 µM.

Regarding `COc1cc(C(=O)/C=C/c2cccc(OC3OC(CO)C(O)C(O)C3O)c2)ccc1OC1OC(CO)C(O)C(O)C1O` [8b, (2E)-1-(4-O-β-D-glucopyranosyl-3-methoxyphenyl)-3-(3-O-β-D-glucopyranosylphenyl)-prop-2-en-1-one], the figures for the IC50 at tyrosinase and against AChE were over 100 µM and 81.8 ± 3.4 µM, respectively.

Consider `COc1ccccc1/C=C/C(=O)c1cc(OC2OC(CO)C(O)C(O)C2O)cc(OC2OC(CO)C(O)C(O)C2O)c1` [17a, (2E)-1-(3,5-di-O-β-D-glucopyranosylphenyl)-3-(2-methoxyphenyl)-prop-2-en-1-one], for which the results for the IC50 on tyrosinase, against AChE and at α-glycosidase were over 100 µM, over 100 µM and 23600 ± 900 µM, respectively.

Turning to `COc1ccc(/C=C/C(=O)c2cc(O)cc(O[C@@H]3O[C@H](CO)[C@@H](O)[C@H](O)[C@H]3O)c2)cc1` [16c, (2E)-1-(3-O-β-D-glucopyranosyl-5-hydroxyphenyl)-3-(4-methoxyphenyl)-prop-2-en-1-one], the IC50 at tyrosinase was over 100 µM; against AChE, over 100 µM; at α-glycosidase, 6800 ± 60 µM.

Consider `COc1cccc(/C=C/C(=O)c2cc(O)cc(O[C@@H]3O[C@H](CO)[C@@H](O)[C@H](O)[C@H]3O)c2)c1` [16b, (2E)-1-(3-O-β-D-glucopyranosyl-5-hyroxyphenyl)-3-(3-methoxyphenyl)-prop-2-en-1-one], for which the IC50 was over 100 µM at tyrosinase, over 100 µM against AChE and 6600 ± 50 µM on α-glycosidase.

`COc1cc(C(=O)/C=C/c2ccc(O)cc2)ccc1OC1OC(CO)C(O)C(O)C1O` [7c, (2E)-1-(4-O-β-D-glucopyranosyl-3-methoxyphenyl)-3-(4-hydroxyphenyl)prop-2-en-1-one]: the IC50 at tyrosinase was 11.1 ± 0.55 µM; against AChE, over 100 µM.

On to `COc1cc(C(=O)/C=C/c2cccc(O)c2)ccc1O[C@@H]1O[C@H](CO)[C@@H](O)[C@H](O)[C@H]1O` [7b, (2E)-1-(4-O-β-D-glucopyranosyl-3-methoxyphenyl)-3-(3-hydroxyphenyl)prop-2-en-1-one], for which the values for the IC50 on tyrosinase and on AChE were 82.5 ± 4.5 µM and over 100 µM, respectively.
